The target in one data set is T1, GLP-1R (Homo sapiens, UniProt P43220).
T1 construct: host or cells: HEK293
The data set can be described thus: In vitro GLP-1R agonistic activity test (cAMP, HEK293 cell line). Format: cell-based. Conditions: cAMP, HEK293 cells expressing GLP-1R; read-out: GLP-1 EC50. As to the method:
(§1) The cell lines were constructed by Pharmaron Inc. See details in the table below.
(§2) The test compounds were diluted at a 5-fold dilution factor in 10 points, starting from an initial concentration of 200 nM.
(§3) 1) The cell lines were cultured respectively in complete medium at 37° C. and 5% CO2.
(§4) 1) Eu-cAMP tracer was freeze-thawed and diluted 50 fold with detection buffer; and Ulight-anti-cAMP was freeze-thawed and diluted 150 fold with detection buffer.
(§5) 3) 10 μL of Eu-cAMP tracer was added and then 10 μL of Uligh-anti-cAMP was added into experimental wells respectively.
(§6) 4) The reaction plate was centrifuged at 200 g at room temperature for 30 s and left for stand at 25° C. for 1 h.

In a further data set the target is T2, GIPR (Homo sapiens, UniProt P48546).
T2 construct: host or cells: CHO
T2 sequence (P48546 22-466): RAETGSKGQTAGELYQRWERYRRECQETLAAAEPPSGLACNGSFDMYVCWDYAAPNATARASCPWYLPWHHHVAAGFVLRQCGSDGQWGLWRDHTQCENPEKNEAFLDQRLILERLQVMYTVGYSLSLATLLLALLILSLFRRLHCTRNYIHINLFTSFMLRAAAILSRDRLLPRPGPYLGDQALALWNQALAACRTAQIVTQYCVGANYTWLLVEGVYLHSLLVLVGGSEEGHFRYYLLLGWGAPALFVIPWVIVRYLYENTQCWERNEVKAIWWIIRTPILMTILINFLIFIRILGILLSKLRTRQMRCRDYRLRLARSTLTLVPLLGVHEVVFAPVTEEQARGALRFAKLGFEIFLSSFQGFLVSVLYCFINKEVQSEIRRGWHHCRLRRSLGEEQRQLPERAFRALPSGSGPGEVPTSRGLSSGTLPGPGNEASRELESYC
Kind of data set: In vitro GIPR agonistic activity test (cAMP, CHO cell line). The format is cell-based. As to conditions: CHO cells expressing GIPR, read-out: GIP-1 EC50. As to the method:
as §1, §2, §3, §4, §5, §6

Another data set deals with T3, GCGR (Homo sapiens, UniProt P47871).
T3 construct: host or cells: HEK293
T3 sequence (P47871 26-477, species assumed): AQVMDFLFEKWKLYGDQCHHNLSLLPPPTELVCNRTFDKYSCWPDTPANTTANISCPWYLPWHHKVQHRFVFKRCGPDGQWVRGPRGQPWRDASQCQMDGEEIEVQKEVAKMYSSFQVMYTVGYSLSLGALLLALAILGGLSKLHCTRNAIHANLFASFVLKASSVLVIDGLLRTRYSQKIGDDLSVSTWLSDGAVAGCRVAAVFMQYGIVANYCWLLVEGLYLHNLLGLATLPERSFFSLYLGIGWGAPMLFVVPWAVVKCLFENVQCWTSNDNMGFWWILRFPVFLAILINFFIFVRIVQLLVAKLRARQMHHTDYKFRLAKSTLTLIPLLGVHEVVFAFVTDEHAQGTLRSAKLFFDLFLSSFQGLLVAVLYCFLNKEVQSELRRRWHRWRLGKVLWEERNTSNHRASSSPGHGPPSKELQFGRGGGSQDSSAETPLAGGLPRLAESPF
Kind of data set: In vitro GCGR agonistic activity test (cAMP, HEK293 cell line). Format: cell-based. Conditions: cAMP, HEK293 cells expressing GCGR; read-out: GCG EC50. As to the method: as §1, §2, §3
2) After digestion with TrypLE, the cells were re-suspended in experimental buffer respectively, and inoculated in a CulturPlate-384 cell culture plate at a density of 2000 cells/well and at a volume of 15 μL/well.
as §4
2) 5 μL of the test compounds were added respectively into experimental wells of the CulturPlate-384 cell culture plate, which was centrifuged at 200 g for 30 s, and left for stand at 37° C. for 30 min.
as §5, §6
5) Envision 2105 was used to collect data, with excitation light at 340 nm and emission light at 665 nm and 615 nm.

A short description of data set [1]: Pharmacokinetic properties in Cynomolgus macaques. As to conditions: cynomolgus monkey, in vivo. In a few lines: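 Non-juvenile male cynomolgus macaques were used, three per compound. Plasma was sampled from 1 h to 240 h after administration. Drug levels were quantified by LC-MS/MS and pharmacokinetic parameters calculated from the concentration–time data.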
Data set [2] in a line: Metabolic stability in human kidney S9. Format: in vitro ADME. Conditions: human, s9. An outline of the steps: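 Human kidney S9 (1 mg/mL final) with NADPH and UDPGA cofactors, test compound at 1 μM final, incubated at 37°C. Aliquots quenched with acetonitrile at 0.5, 5, 15, 30 and 60 min; LC-MS/MS peak areas used to derive depletion slopes.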
The next data set relates to DIO obesity mouse model. The data set can be described thus: Pharmacodynamics in DIO obesity mouse model. The format is in vivo. As to conditions: DIO mice. The text has this: Experimental purpose: To evaluate the effects of multiple administration of the test substance (compound) on body weight and glucolipid metabolism.
In this experiment, mice were used as test animals, which were induced with a high-fat diet (Research Diets: D12492) from 4-5 weeks old for 8 weeks, and the animals were grouped according to their body weights and fasting blood glucose levels, with the average body weight of the model animals being 47.2±0.3 g, the average body weight of the control animals being 27.9±0.3 g, the average fasting blood glucose of the model animals being 8.8±0.2 mmol/L, and the average fasting blood glucose of the control animals being 6.0±0.2 mmol/L. There were six animals in each group. The animals were administered immediately after grouping and were administered by subcutaneous injection every 3 days for 22 consecutive days. Both the normal control and model groups were given with vehicle (20 mM citrate buffer). Body weight and food intake were measured twice a week. Fasting blood glucose was tested on Days 10 and 20, OGTT test was performed on Day 20, and blood was collected on Day 23 to test the liver function indicators (ALT, AST, ALP) and serum lipid metabolism indicators (TC, TG, HDL, LDL). Liver tissues were taken to calculate organ indexes, and liver lipid metabolism indicators (hepatic TC, TG) were detected. The liver tissues were examined pathologically (HE, Oil Red) to evaluate the effects of the test substances on body weight and glucolipid metabolism in a high-fat diet-induced obesity mouse model.
The experimental data of each group of animals was described as mean±standard error (X±SEM). P<0.05 indicated the statistically significant difference. All statistical analysis was completed using Graphpad 8.0 software.

SMILES strings stand for the structures. Where only a bound is given, the exact number is not on record here.

T1 sequence (P43220 24-463, species assumed): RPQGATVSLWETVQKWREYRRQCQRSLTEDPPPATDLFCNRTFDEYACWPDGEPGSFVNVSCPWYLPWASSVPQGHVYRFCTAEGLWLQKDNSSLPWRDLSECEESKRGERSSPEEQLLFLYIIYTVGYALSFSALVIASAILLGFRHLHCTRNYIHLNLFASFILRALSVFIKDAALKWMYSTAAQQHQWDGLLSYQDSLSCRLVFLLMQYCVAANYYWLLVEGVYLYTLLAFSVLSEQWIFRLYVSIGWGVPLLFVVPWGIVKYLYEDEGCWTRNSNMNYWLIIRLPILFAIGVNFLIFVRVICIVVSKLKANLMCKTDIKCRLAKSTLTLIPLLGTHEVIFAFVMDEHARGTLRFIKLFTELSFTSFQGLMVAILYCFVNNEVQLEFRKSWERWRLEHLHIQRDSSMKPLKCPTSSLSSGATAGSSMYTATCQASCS

In the case of `CC[C@H](C)[C@H](NC(=O)[C@H](Cc1ccccc1)NC(=O)[C@H](C)NC(=O)C(C)(C)NC(=O)[C@H](CCC(N)=O)NC(=O)[C@H](C)NC(=O)[C@H](CCCCNC(=O)COCCOCCNC(=O)CC[C@H](NC(=O)CCCCCCCCCCCCCCCCCCC(=O)O)C(=O)O)NC(=O)[C@H](CCCCN)NC(=O)[C@H](CC(=O)O)NC(=O)[C@H](CC(C)C)NC(=O)[C@](C)(CC(C)C)NC(=O)[C@@H](NC(=O)[C@H](CO)NC(=O)[C@H](Cc1ccc(O)cc1)NC(=O)[C@H](CC(=O)O)NC(=O)[C@H](CO)NC(=O)[C@@H](NC(=O)[C@H](Cc1ccccc1)NC(=O)[C@@H](NC(=O)CNC(=O)[C@H](CCC(N)=O)NC(=O)C(C)(C)NC(=O)[C@@H](N)Cc1ccc(O)cc1)[C@@H](C)O)[C@@H](C)O)[C@@H](C)CC)C(=O)N[C@@H](CCC(=O)O)C(=O)N[C@@H](Cc1ccc(O)cc1)C(=O)N[C@@H](CC(C)C)C(=O)N[C@@H](CC(C)C)C(=O)N[C@@H](CCC(=O)O)C(=O)NCC(=O)NCC(=O)N1CCC[C@H]1C(=O)N[C@@H](CO)C(=O)N[C@@H](CO)C(=O)NCC(=O)N[C@@H](C)C(=O)N1CCC[C@H]1C(=O)N1CCC[C@H]1C(=O)N1CCC[C@H]1C(=O)N[C@@H](CO)C(N)=O` [LY3437943, reference compound], on GLP-1R, the 50% effective concentration (EC50) is 0.014 nM. The concentration giving a half-maximal response (EC50) at GIPR was 0.001 nM. At GCGR, the EC50 was found to be 0.031 nM. In addition, in data set [1], the AUC(0-inf) was 2.93 µM·h, the exposure AUC(0-t) amounted to 2.7 µM·h, the highest level (Cmax) was 22.1 nM and the time of peak concentration (Tmax) was determined as 29.3 h. Besides, the half-life in data set [1] was 58.8 h. Moreover, in data set [2], the half-life is > 3.08 h and the microsomal CLint was < 3.75 µL/min/mg. The Liver-body ratio in the data set with DIO obesity mouse model (10 nmol/kg subcutaneous every 3 days) was 0.032 ± 0.003 g/g. In the data set on DIO obesity mouse model (10 nmol/kg subcutaneous every 3 days, first experiment), the “Change rate of body weight on Day 22” value was −29.19 ± 2.94%. Also, the “Change rate of body weight on Day 22” value in the data set on DIO obesity mouse model (10 nmol/kg, second experiment with similar protocol) was −26.32 ± 1.91%. The “Fasting blood glucose, Day 0” value with DIO obesity mouse model (Day 0 (at grouping), 10 nmol/kg group) came out at 8.2 ± 0.3 mmol/L. The “Fasting blood glucose, Day 10” value in the data set on DIO obesity mouse model (Day 10, 10 nmol/kg subcutaneous every 3 days) was 5.2 ± 0.9 mmol/L. In addition, the “Fasting blood glucose, Day 20” value in the data set with DIO obesity mouse model (Day 20, 10 nmol/kg subcutaneous every 3 days) was 6.2 ± 0.4 mmol/L.

What is called EC50 is the concentration needed to bring the measured effect to its halfway point. The AUC(0-inf) is total exposure, with the tail of the curve extrapolated. Low values mean low exposure, high ones high exposure. By AUC(0-t) is commonly meant the area under the concentration-time curve up to a stated or last time point. A higher AUC(0-t) goes with high exposure. One may read the Cmax as the highest concentration seen after dosing. In general, Tmax refers to the time from dosing to the highest level. In general, half-life refers to the time in which the quantity being followed falls by half. The term microsomal CLint denotes a measure of how fast metabolising enzymes remove a compound, apart from limits set by blood flow. A high value points to faster metabolism.
